Source: PMC8453936, “Development and in vitro Profiling of Dual FXR/LTA4H Modulators” (Chemmedchem, 2021)

Columns and labels:
[1] = biological target: T1, PPARγ (Homo sapiens, UniProt P37231); assay: Gal4 hybrid reporter gene assay PPARγ (HEK293T); type: cell-based; settings: relative activation, n=2
T1 construct: expressed in transfected cells; host or cells: HEK293T
T1 sequence (P37231 238-503 limits assumed): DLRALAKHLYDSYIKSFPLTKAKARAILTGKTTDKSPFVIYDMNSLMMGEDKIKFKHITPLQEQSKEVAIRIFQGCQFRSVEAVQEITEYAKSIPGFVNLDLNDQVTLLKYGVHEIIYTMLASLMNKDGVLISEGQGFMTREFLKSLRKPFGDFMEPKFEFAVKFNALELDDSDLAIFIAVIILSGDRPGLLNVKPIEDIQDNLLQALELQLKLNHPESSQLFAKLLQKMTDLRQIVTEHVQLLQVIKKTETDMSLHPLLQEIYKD
Text: (§1) Isothermal titration calorimetry (ITC) confirmed binding of 8 and 19 to the recombinant proteins of both FXR LBD and LTA4H (Figure 1).
(§2) Figure 2 (a) Selectivity profiles of 8 and 19 over related nuclear receptors. […] (b) Activity of 8 and 19 in a WST‐1 cell viability assay in HepG2 cells. Data are mean±S.E.M., n=4. […] Data are mean±S.E.M. relative FXR activation (%), n≥3. […] Data are mean±S.E.M. relative LTA4H inhibition (%), n=3.
(§3) Hybrid reporter gene assays. Nuclear receptor modulation was determined in hybrid reporter gene assays using the Gal4‐fusion receptor plasmids pFA‐CMV‐hPPARα‐LBD,[39] pFA‐CMV‐hPPARγLBD,[39] pFA‐CMV‐hPPARδ‐LBD,[39] pFA‐CMV‐hLXRα‐LBD,[40] pFACMV‐hLXRβ‐LBD,[40] pFA‐CMV‐hRXRα‐LBD,[41] pFA‐CMV‐hRARα‐LBD,[41] pFA‐CMV‐hVDR‐LBD[41] and pFA‐CMV‐hCAR‐LBD[41] coding for the hinge region and ligand binding domain (LBD) of the canonical isoform of the respective nuclear receptor, pFR‐Luc (Stratagene) as reporter plasmid and pRL‐SV40 (Promega) for normalization of transfection eﬃciency. HEK293T cells were grown in DMEM high glucose, supplemented with 10 % FCS, sodium pyruvate (1 mM), penicillin (100 U/mL), and streptomycin (100 μg/mL) at 37 °C and 5 % CO2, and seeded in 96‐well plates (2.5 ⋅ 10^4 cells/well) the day before transfection. […] Luminescence was measured with an Infinite M200 luminometer (Tecan Deutschland GmbH, Germany). […]

[2] = test system: related nuclear receptors (RAR, PPAR, LXR, VDR, CAR, RXR); assay: Gal4 hybrid reporter gene assays, selectivity over related nuclear receptors (HEK293T); type: cell-based, human; settings: heatmap of mean relative activation, n=2
Text: as §1, §2, §3

[3] = biological target: T2, recombinant human LTA4H (Homo sapiens, UniProt P09960); assay: Isothermal titration calorimetry on LTA4H; parameters: His-tag (inferred from IMAC on HisTrap); made in house; host or cells: E. coli BL21(DE3)RIPL-Codon Plus; settings: ITC, 25 °C, 1:1 binding assumed
T2 sequence (P09960 1-611): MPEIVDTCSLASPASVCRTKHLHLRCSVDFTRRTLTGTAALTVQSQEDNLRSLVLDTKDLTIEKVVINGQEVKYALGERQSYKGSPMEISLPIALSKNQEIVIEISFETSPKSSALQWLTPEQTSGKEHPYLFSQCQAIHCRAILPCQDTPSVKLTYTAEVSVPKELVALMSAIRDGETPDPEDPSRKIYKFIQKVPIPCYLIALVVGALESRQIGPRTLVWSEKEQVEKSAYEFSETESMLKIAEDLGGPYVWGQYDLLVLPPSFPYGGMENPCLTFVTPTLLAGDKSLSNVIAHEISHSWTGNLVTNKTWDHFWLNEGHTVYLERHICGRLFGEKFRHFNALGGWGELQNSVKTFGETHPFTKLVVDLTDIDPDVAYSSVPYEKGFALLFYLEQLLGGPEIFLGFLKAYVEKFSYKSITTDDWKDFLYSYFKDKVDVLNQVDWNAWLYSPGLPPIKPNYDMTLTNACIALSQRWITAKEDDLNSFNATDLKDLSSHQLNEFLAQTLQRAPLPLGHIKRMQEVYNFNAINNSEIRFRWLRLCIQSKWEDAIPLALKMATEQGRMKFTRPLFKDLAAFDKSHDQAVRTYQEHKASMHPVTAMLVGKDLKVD

Structure (SMILES): O=C(O)c1cccc(NC(=O)c2ccc(OCCCc3ccccc3)cc2)c1 [compound 8]
- PPARγ activation [1]: weak PPARγ activation
- selectivity over related nuclear receptors [2]: favorable selectivity
- Kd [3]: ~300 nM

Structure (SMILES): O=C(O)c1ccnc(NC(=O)c2ccc(OCCCc3ccccc3)cc2)c1 [compound 19, 2‐(4‐(3‐Phenylpropoxy)benzamido)isonicotinic acid]
- selectivity over related nuclear receptors [2]: favorable selectivity
- Kd [3]: ~700 nM
